Tested on: S. typhimurium DT 104
Experiment: Salmonella on alfalfa seeds with an initial inoculum of 10^4 CFU/g
Type: cell-based, Salmonella typhimurium DT104
Procedure: Five isolates of Escherichia coli O157:H7, including strain 932 (human isolate), E009 (beef isolate), E0018 (cattle isolate), E0122 (cattle isolate), E0139 (deer jerky isolate); and five isolates of Salmonella typhimurium DT104, including strain H2662 (cattle isolate), 11942A (cattle isolate), 13068A (cattle isolate), 152N17-1 (dairy isolate) and H3279 (human isolate) were used. Nalidixic acid-resistant (50 μg/ml) E. coli O157:H7 were used to facilitate enumeration. Each E. coli O157:H7 and Salmonella strain was grown in tryptic soy broth (TSB, Beckon Dickinson, Sparks, Md.) at 37° C. for 18 hr. Approximately equal cell numbers of each of the five strains were combined and used as a 5-strain mixture with cell numbers being adjusted by spectrophotometric (Spectronic Instruments, Rochester, N.Y.) determination as described in Zhao et al., (2009) J. Food Prot. 72: 928-936, incorporated herein by reference in its entirety. Bacterial cell numbers were confirmed by plating 0.1 ml of serial dilutions (1:10) in 0.1% peptone on tryptic soy agar (TSA, Beckon Dickinson) and Sorbitol MacConkey agar (SMA, Oxoid, Hampshire, UK) for E. coli O157:H7, and TSA and XLD agar (Beckon Dickinson) for Salmonella and incubating all plates at 37° C. for 24 hr, after which colonies were counted.
Levulinic acid (0.5%) and 0.05% sodium dodecyl sulfate (SDS) obtained from Sigma-Aldrich (St. Louis, Mo.) were tested in combination at 21±2° C. for their antimicrobial activity to E. coli O157:H7 and S. typhimurium on alfalfa seeds as a wash treatment. Calcium hypochlorite (Arch Chemicals, Smyrna, Ga.) at 20,000 μg/ml (ppm) was used as the positive control, and deionized water was used as the negative control.
Before each trial, 25 ml of sterile tap water and 25 g of alfalfa seeds were added to a WHIRL-PAK® bag (Nasco, Fort Atkinson, Wis.) and pummeled in a stomacher blender at 150 rpm for 1 min. Duplicate 0.1 ml portions of the contents were plated on SMA, XLD, and TSA plates to detect E. coli O157:H7 and Salmonella, and enumerate aerobic bacteria counts according to the protocols described below. Only E. coli O157:H7-negative and Salmonella-negative alfalfa seeds were used. Dry seeds (50 g) were individually placed in a sterilized glass beaker (1 L) and 5 ml of a mixture of E. coli O157:H7 or S. typhimurium DT 104 (high inocula at 10^8-10^9 CFU/ml and low inocula at 10^3-10^4 CFU/ml) was inoculated on the surface of the seeds in each glass beaker under a laminar flow hood. A sterile plastic spoon was used to mix for 2 min the seeds with bacterial suspension. […]
Inactivation of E. coli O157:H7 and Salmonella on Alfalfa Seeds: Inoculated, dried alfalfa seeds (50 g samples) were placed in a 1000 ml glass beaker containing 200 ml of treatment solution and agitated by a magnetic stir bar at 150 ppm at 21° C. for 0, 1, 2, 5, 10, 20, 30, and 60 min. Following treatment, 25 g of seeds was placed in a stomacher bag containing 25 ml 0.1M phosphate buffer, pH 7.2 (PBS) for levulinic acid plus SDS-treated seeds or neutralizing buffer ([…], Ltd., Worthing, England). The suspension was serially (1:10) diluted in 0.1% peptone water and 0.1 ml of each dilution was surface-plated in duplicate onto TSA and Sorbitol MacConkey agar containing 50 μg nalidixic acid/ml (TSA-NA and SMA-NA) for E. coli O157:H7, and on TSA and XLD containing ampicillin (32 μg/ml), tetracycline (16 μg/ml) and streptomycin (64 μg/ml) (TSA+ and XLD+) for S. typhimurium DT 104. All plates were incubated at 37° C. for 48 hr.

[1] = dried at 21° C. for 2 hr, treated for 20 min (10 min in beaker and 10 min in a stomacher bag) at 21° C.

## [Ca+2].[O-]Cl.[O-]Cl [20,000 ppm, Ca(OCl)2, pH 11.4, Calcium hypochlorite]
10 min in glass beaker then pummeled 10 min in stomacher bag
  Salmonella on treated seeds by direct plating method: negative
[1]
  S. typhimurium DT 104 count in sample No. 1-10 (seeds): −
  S. typhimurium DT 104 count in sample No. 1-10 (treated supernatant): −
Enrichment culture after use
  Salmonella in solutions used for treatment: negative
None pathogen-positive by direct plating
  Salmonella detection in samples treated for 10 min: sporadically positive by enrichment culture assay

Reference: patent US20130005811A1, “ANTIMICROBIAL TREATMENT FOR SEEDS AND SPROUTS” (priority 2010, published 2013)
